Source: publication PMC6813295, “A tumour-selective cascade activatable self-detained system for drug delivery and cancer imaging” (Nature Communications, 2019)
Where a SMILES comes first, the peptide text is derived from it. The star is where a group is joined. X1 = CC1(C)C(=CC=C2CCCC(C=CC3=[N+](CCCCCC(=O)O)c4ccccc4C3(C)C)=C2*)N(CCCCCC(=O)O)c2ccccc21

System: human bladder tumour tissues
Assay: Ex vivo NIR imaging of human intact bladder after intravesical instillation
Conditions: 70 mL of 50 μM in PBS pH 7.4 instilled, 37 °C, 1 h
Method: After obtaining approval from the institutional review board of the Fourth Hospital of Harbin Medical University, patients with urothelial carcinoma were scheduled for radical cystectomy and appropriate informed consent was obtained. Fresh intact bladder was obtained from the operating room immediately after radical cystectomy and irrigated three times for 5 min via an 18-French (Fr) urinary catheter with sterile saline, and 70 mL of molecule 1 in PBS (50 μM, pH 7.4) was instilled and incubated at 37 °C for 1 h. Then, the unbound molecule 1 was removed by irrigating with sterile saline three times for 5 min, the bladder was opened longitudinally on the anterior wall. Ex vivo fluorescent and white light imaging of the bladder cancer was performed using a near infrared imaging system. To explore the correlation between appearance of fluorescent signal and cancer lesions, standard pathological analysis of represented fluorescent spots were carried out after imaging.

For `CC[C@H](C)[C@H](NC(=O)[C@@H]1CCCN1C(=O)[C@@H](NC(=O)[C@H](C)N)C(C)C)C(=O)N[C@@H](C)C(=O)N[C@@H](CCC(N)=O)C(=O)N[C@@H](CCCCN)C(=O)N[C@@H](CC(=O)O)C(=O)N[C@@H](CCC(=O)O)C(=O)N[C@H](C(=O)N[C@@H](CC(=O)O)C(=O)N[C@@H](CCCCN)C(=O)N[C@@H](CC(C)C)C(=O)N[C@H](C(=O)N[C@@H](Cc1ccccc1)C(=O)N[C@@H](Cc1ccccc1)C(=O)N[C@@H](C)C(=O)N[C@@H](CCC(=O)O)C(=O)N[C@@H](CSC1=C(C=CC2=[N+](CCCCCC(=O)O)c3ccccc3C2(C)C)CCCC1=CC=C1N(CCCCCC(=O)O)c2ccccc2C1(C)C)C(=O)NCC(=O)O)C(C)C)C(C)C` [molecule 1] (H-AVPIAQKDEVDKLVFFAEC(X1)G-OH), the “signal-to-noise ratio of the tumour area versus surrounding normal tissue” value was “up to 2.7 times”.
